Measured values as given in patent US20220098237A1, “COMPOUND, SYNTHESIS INTERMEDIATE, USE, PHARMACEUTICAL COMPOSITION AND NEUROMODULATORY THERAPEUTIC METHOD” (Remer Consultores Assessoria Empresarial Ltda, priority 2017, published 2022).
Several values for one entry are separate records, joined by “and”; a condition that tells them apart may be missing. Identical values can stand only once. Entries after “also recorded” stand apart in the source; their conditions may differ. Ends that are not written are not given here.

How the values were obtained:
human CB1 receptor = target: T1, human CB1 receptor (Homo sapiens, UniProt P21554); test: In vitro radioligand binding, [3H] CP 55940, recombinant CHO cells; conditions: reference radioligand agonist
T1 construct: expressed in transfected cells; host or cells: CHO cells
T1 sequence (P21554 whole entry): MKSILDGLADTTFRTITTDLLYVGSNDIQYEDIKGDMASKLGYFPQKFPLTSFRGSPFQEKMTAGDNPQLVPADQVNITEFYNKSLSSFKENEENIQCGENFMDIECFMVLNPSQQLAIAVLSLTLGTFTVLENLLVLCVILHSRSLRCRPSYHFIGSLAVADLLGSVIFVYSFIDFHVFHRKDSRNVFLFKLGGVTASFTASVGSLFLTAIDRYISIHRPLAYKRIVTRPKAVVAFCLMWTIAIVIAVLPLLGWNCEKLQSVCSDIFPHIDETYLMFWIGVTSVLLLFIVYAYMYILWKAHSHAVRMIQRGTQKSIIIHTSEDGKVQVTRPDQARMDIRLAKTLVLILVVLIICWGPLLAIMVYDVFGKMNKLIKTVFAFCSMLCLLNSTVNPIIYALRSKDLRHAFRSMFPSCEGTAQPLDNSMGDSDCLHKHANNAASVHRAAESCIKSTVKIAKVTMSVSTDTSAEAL
Method: In vitro binding assays were performed using recombinant CHO cells expressing the human CB1 receptor and the [3H]
Results are expressed as the percentage of binding of the specific control according to formula: […]
And the percentual inhibition of binding of specific control obtained in the presence of the compound of the invention is:
IC50 values (concentration that causes half of maximal inhibition of specific control binding) and Hill (nH) coefficients were determined by nonlinear regression of the competition curves generated with the mean values of the replicates using the Hill equation:
Where Y=specific binding, A=asymptotic left of curve, D=asymptotic right of curve, C=compound concentration, C50=IC50 and nH=curve coefficient/slope factor. This analysis was performed using the Hill software validated by comparison with data generated by Sigmaplot 4.0 software. Inhibition constants (Ki) were calculated using the equation of Chen Prusoff:
Where L=concentration of the radioligand in the assay; KD=affinity of the radioligand for the receptor. A graph is used to determine the KD.

[1] = Stability tests under extreme conditions (freezing 24 hours; heating at 100° C. for 10 minutes), HPLC; format: physicochemical
Excerpt: In the vertical axis the area of the HPLC peak is shown. […] Statistical significance data are also shown, the asterisks indicating: (*) P<0.05 vs Control (***) P<0.005 vs Control; (****) P<0.0001 vs Control.

CB1 receptor = test: Screening with anti-CB1 antibodies sensitive to activation/conformational changes, ELISA on Striatum membranes; format: binding; conditions: ligands 1 μM, Assay 1-5
Method: Antibodies sensitive to CB1 receptor activation were generated and characterized by their specificities. For screening compounds, Striatum membranes (5 μg per well) were plated on NUNC-Immuno 96-well plates (Nalge-Nunc) and dried at room temperature. Membranes were washed with PBS (phosphate buffered saline) and incubated with or without different ligands (1 μM) and the extent of receptor recognition by the antibodies was measured by ELISA. The results of the tests are shown in Table 5, which indicates the % binding to the CB1 receptor in relation to control: […]

pilocarpine model = test: Pilocarpine model, oral pre-treatment (salivation, first signal, seizure, death/survival); format: in vivo, Mus musculus; set-up: time of occurrence of the first seizure: unit not given here; conditions: for time of occurrence of the first salivation: Table 1; for time of occurrence of the first salivation / time of occurrence of the first signal / time of occurrence of the first seizure / time of death occurrence: oral, 10 minutes prior to pilocarpine 320 mg/kg i.p., individual animals; for time of occurrence of the first signal: Table 2; for time of occurrence of the first seizure: Table 3; for time of death occurrence: Table 4; for neuroprotection, survival/death profile after 24 hours: FIG. 7, 600 μg/kg, n=5 per group, compared with SEQ ID No. 1
Method: In some examples, the neuromodulatory/neuroprotective/anticonvulsive effects of the composition of the invention have been evaluated in vivo by oral administration to animals. The pharmaceutical composition of the invention was administered to mammals (Mus musculus or mouse) with an oral dose of treatment with different embodiments of the compound of the invention, compared to other compounds or to saline control. In these experiments, the test compounds were administered orally 10 minutes prior to (intraperitoneal) administration of pilocarpine. Pilocarpine hydrochloride (320 mg/kg, Merck), dissolved in 0.9% sterile saline, was given intraperitoneally for induction of SE (status epileticus) (Turski et al., 1983). In the Turski model, the neurotoxic effects begin about 15-25 minutes after the injection of Pilo, with the occurrence of motor and limbic seizures, the animals evolving to a state of continuous (clonic) seizures that characterize SE Sanabria and Cavalheiro, 2000).
In this embodiment, the anticonvulsive effect of the composition of the invention prepared according to Example 2 was evaluated by prior administration of the inventive composition and subsequent administration of pilocarpine to animals. FIG. 4 presents the results of the pilocarpine model, indicating the time for the first salivation with the administration of control, cannabidiol (30 mg/kg), the compound of the invention R1-N-AA1-K-AA2-R2, in which embodiment is the tetrapeptide of SEQ ID No. 1 (500 μg/kg).
In this embodiment, the neuromodulatory effect of the composition of the invention prepared according to Example 2 was evaluated by prior administration of the inventive composition and subsequent administration of pilocarpine to animals. Other test compounds were also evaluated as described below. Administration of pilocarpine leads to severe brain injury, neurotoxicity and usually culminates in the death of the animals. This substance was used in the experiments described below but its harmful neuronal/encephalic effects were inhibited by the prior administration of the composition of the present invention: the vast majority of the animals subjected to these experiments had no symptoms related to brain lesions and survived without apparent damage, in contrast to groups of animals treated with other known substances.
The composition of the invention was prepared according to Example 2 with due concentration correction, for comparison of the effects of SEQ ID No. 1, SEQ ID No. 7 and NFK, such compounds having been previously administered to the animal groups.
In this embodiment, the anticonvulsant effect of different embodiments of the compound of the invention with the structure represented by SEQ ID No. 1, SEQ ID No. 7, NFK, FKF, FKL, as well as the NF, FK, KF and KL dipeptides were evaluated in the pilocarpine model.

pain threshold = test: Pain threshold model, pressure apparatus on right paw; format: in vivo, rats; conditions: oral, 0.5 to 0.25 mg/kg, individual animals
Method: The compounds of the present invention have also been tested as analgesics or neuropathic pain modulators. To that end, the compounds PVNFKF, PVNFK, VNFKF, SEQ ID No. 1 were tested in the pain threshold model. The pain threshold was measured using a pressure apparatus (Ugo Basile, Italy), essentially as described (Randall and Selitto, 1957). Briefly, a force of increasing magnitude (16 g/s) was applied to the back of the right paw of rats. When animals react by kicking, the force in grams required to induce this response is the threshold of pain. Antinoniceptive activity was expressed as the increase in pain threshold compared to control animals.
The compounds of the invention were administered orally to the animals at doses of 0.5 to 0.25 mg/kg and saline was used as a control.

[2] = target: CB1 receptor in Striatum membranes; test: ELISA on Striatum membranes: CB1 recognition by conformation-sensitive anti-CB1 antibody after incubation with 1 µM ligand; assay 5
CB1 receptor in Striatum membranes, sequence (P21554 whole entry): as above

[3] = target: CB1 receptor in Striatum membranes; test: ELISA on Striatum membranes: CB1 recognition by conformation-sensitive anti-CB1 antibody after incubation with 1 µM ligand; assay 3
[4] = target: CB1 receptor in Striatum membranes; test: ELISA on Striatum membranes: CB1 recognition by conformation-sensitive anti-CB1 antibody after incubation with 1 µM ligand; assay 4
[5] = target: CB1 receptor in Striatum membranes; test: ELISA on Striatum membranes: CB1 recognition by conformation-sensitive anti-CB1 antibody after incubation with 1 µM ligand; assay 1
[6] = target: CB1 receptor in Striatum membranes; test: ELISA on Striatum membranes: CB1 recognition by conformation-sensitive anti-CB1 antibody after incubation with 1 µM ligand; assay 2
[7] = target: T2, recombinant human CB2 cannabinoid receptor (human, UniProt P34972 1-360); test: [3H]WIN 55212-2 radioligand displacement on CHO cells expressing human CB2
T2 construct: whole, on cells; also called human CB2 receptor
T2 sequence (P34972 whole entry): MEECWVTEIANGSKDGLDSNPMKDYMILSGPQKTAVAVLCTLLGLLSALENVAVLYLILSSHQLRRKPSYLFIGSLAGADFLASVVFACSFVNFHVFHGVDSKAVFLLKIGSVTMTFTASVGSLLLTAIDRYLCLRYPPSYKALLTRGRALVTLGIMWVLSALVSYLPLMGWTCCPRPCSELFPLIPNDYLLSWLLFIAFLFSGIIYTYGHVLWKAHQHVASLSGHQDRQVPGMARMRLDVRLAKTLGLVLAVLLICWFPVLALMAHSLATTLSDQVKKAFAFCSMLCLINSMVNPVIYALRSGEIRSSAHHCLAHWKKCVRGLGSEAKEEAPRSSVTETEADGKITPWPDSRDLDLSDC
Method: In vitro binding assays were performed using recombinant CHO cells expressing human CB2 receptor and [3H]

[8] = heating at 100° C. for 10 minutes

## CCCCCCC(C)(C)c1ccc([C@@H]2C[C@H](O)CC[C@H]2CCCO)c(O)c1 [CP 55940, reference compound]
Human CB1 receptor
  nH: 1

## CC(C)C[C@H](NC(=O)[C@H](Cc1ccccc1)NC(=O)[C@H](CCCCN)NC(=O)[C@H](Cc1ccccc1)NC(=O)[C@H](CC(N)=O)NC(=O)[C@@H](NC(=O)[C@@H]1CCCN1)C(C)C)C(=O)N[C@@H](CO)C(=O)N[C@@H](Cc1cnc[nH]1)C(=O)O [Hp, hemopressin]
[1]; control sample, n=2
  area of the HPLC peak, control: 140
[1]; freezing for 24 h
  area of the HPLC peak after freezing: 97
  part lost or degraded by freezing: approximately 31%
[1]; [8]
  area of the HPLC peak after heating: 50
  part lost or degraded upon heating: approximately 64.3%
CB1 receptor
  % binding to the CB1 receptor in relation to control: 91.33% and 92.74% and 97.05% and 90.23% and 73.49%

## Cc1c(C(=O)c2cccc3ccccc23)c2cccc3c2n1[C@H](CN1CCOCC1)CO3 [WIN 55212-2]
CB1 receptor; listed as Win
  % binding to the CB1 receptor in relation to control: 111.483% and 117.95% and 125.56% and 127.52% and 122.49%

## C=C(C)[C@@H]1CCC(C)=C[C@H]1c1c(O)cc(CCCCC)cc1O [cannabidiol, reference compound]
Pilocarpine model; FIG. 4, cannabidiol 30 mg/kg, SEQ ID No. 1 500 μg/kg
  time for first salivation vs control (significance): does not present statistical significance
Pilocarpine model; SEQ ID No. 1 500 μg/kg, cannabidiol 30 mg/kg
  prostration and nasal bleeding: both prostration and the nasal bleeding was observed; also recorded: both prostration and bleeding were observed

## FKF
Pilocarpine model
  time of occurrence of the first salivation: 0.38 min and 0.95 min and 0.50 min and 1.50 min
  time of occurrence of the first signal: 5.3 min and 6.35 min and 8.33 min and 8.82 min
  time of occurrence of the first seizure: 10.25 and 6.28 and 8.92 and 3.83 and 7.82
  time of death occurrence: 12.9 min and 13.17 min and 20.67 min and 16.67 min and 13.5 min

## FKL
Pilocarpine model
  time of occurrence of the first salivation: 0.333 min and 1.6 min and 0.2 min and 0.633 min and 1.5 min
  time of occurrence of the first signal: 9.17 min and 5.67 min and 9.5 min and 8.5 min and 4.5 min
  time of occurrence of the first seizure: 5.3 and 6.35 and 4.83 and 8.82
  time of death occurrence: 14.53 min and 11.7 min and 10.92 min

## NFK
Pilocarpine model
  neuroprotection, survival/death profile after 24 hours: equivalent to those obtained with SEQ ID No. 1
  time of occurrence of the first salivation: 1.38 min and 0.75 min and 0.42 min and 0.98 min
  time of occurrence of the first signal: 6.28 min and 8.92 min and 4.83 min and 7.82 min
  time of occurrence of the first seizure: 13.38 and 11.33 and 9.67 and 8 and 9.93
  time of death occurrence: 16.83 min and 13.53 min and 11.7 min and 10.92 min and 10.87 min
Pilocarpine model; FIG. 8
  occurrence of first salivation (in words): inhibited or delayed the occurrence of first salivation

## PVNFK [reference compound]
Pain threshold; After 3 h
  pain threshold, force: 55 grams (2×) and 45 grams and 40 grams (2×) and 60 grams
Pain threshold; Immediate
  pain threshold, force: 70 grams and 75 grams (3×) and 65 grams and 60 grams

## PVNFKF [reference compound]
Pain threshold; After 3 h
  pain threshold, force: 45 grams (2×) and 30 grams and 55 grams (2×) and 65 grams
Pain threshold; Immediate
  pain threshold, force: 75 grams (2×) and 65 grams and 60 grams and 70 grams and 80 grams

## RVDHp (peptide)
[2]
  % binding to the CB1 receptor in relation to control: 105 % of control
[3]
  % binding to the CB1 receptor in relation to control: 111 % of control
[4]
  % binding to the CB1 receptor in relation to control: 115 % of control
[5]
  % binding to the CB1 receptor in relation to control: 103 % of control
[6]
  % binding to the CB1 receptor in relation to control: 112 % of control

## RVDHp: N-extended version of hemopressin, RVD-Hp (pepcan 12) (RVDPVNFKLLSH; Hemoglobin subunit alpha; UniProt P69905 93-104, looked up, fragment)
CB1 receptor
  % binding to the CB1 receptor in relation to control: 103.39% and 111.53% and 110.87% and 114.76% and 105.22%

## SEQ ID No. 7: tetrapeptide of SEQ ID No. 7, embodiment of R1-N-AA1-K-AA2-R2; sequence not printed in the text (NFKL; Synthesized in laboratory)
Pilocarpine model
  neuroprotection, survival/death profile after 24 hours: even better than those obtained with SEQ ID No. 1
  time of occurrence of the first salivation: 1.25 min (2×) and 1.183 min and 1.067 min and 2.45 min
  time of occurrence of the first signal: 10.25 min and 9.317 min and 10.17 min (2×) and 3.83 min
  time of occurrence of the first seizure: 15.33 (2×) and 18.4 and 30 and 27.3
  time of death occurrence: 26.63 min and 25.13 min and 13.5 min

## VDHp (peptide)
[2]
  % binding to the CB1 receptor in relation to control: 113 % of control
[3]
  % binding to the CB1 receptor in relation to control: 131 % of control
[4]
  % binding to the CB1 receptor in relation to control: 129 % of control
[5]
  % binding to the CB1 receptor in relation to control: 116 % of control
[6]
  % binding to the CB1 receptor in relation to control: 114 % of control

## VNFKF
Pain threshold; After 3 h
  pain threshold, force: 85 grams and 40 grams and 35 grams and 50 grams (3×)
Pain threshold; Immediate
  pain threshold, force: 70 grams (2×) and 65 grams (2×) and 75 grams (2×)

B1: hemopressin (peptide)
peptide: PVNFKFLSH
[2]
  % binding to the CB1 receptor in relation to control: 73.5 % of control
[3]
  % binding to the CB1 receptor in relation to control: 97 % of control
[4]
  % binding to the CB1 receptor in relation to control: 90.2 % of control
[5]
  % binding to the CB1 receptor in relation to control: 91.3 % of control
[6]
  % binding to the CB1 receptor in relation to control: 92.7 % of control

B2: tetrapeptide SEQ ID No. 1 (peptide)
peptide: NFKF
notes: Synthetic peptide; for the radioligand assays it was a 10 mM stock solution in DMSO
[7]
  binding result: no binding (tested: 1 and 10 µM)

B3: SEQ ID No. 1-Biotin (peptide)
peptide: NFKF
modifications: also: biotin, position not given here
[2]
  % binding to the CB1 receptor in relation to control: 97.5 % of control
[3]
  % binding to the CB1 receptor in relation to control: 83.3 % of control
[4]
  % binding to the CB1 receptor in relation to control: 84.8 % of control
[5]
  % binding to the CB1 receptor in relation to control: 89.2 % of control
[6]
  % binding to the CB1 receptor in relation to control: 85.5 % of control
